Test systems include SK-MEL-28 melanoma; NCI-H23 lung; BT-549 breast; MDA-MB-435; RXF 393 renal; UACC-62 melanoma; HT29 colon; A549 NSCLC; HCC-2998 colon; M14 melanoma; NCI-H460 lung; LOX IMVI melanoma; SR leukemia.
Holding throughout (test): NCI-60 cell line screen, 48 h

SMILES strings stand for the structures.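 Following 48 hours of exposure in 96-well plates, responses at five concentrations were used to interpolate endpoints linearly. TGI: total growth inhibition.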

As for `NC1=CN(CCCO)C2=N/C(=C\c3ccco3)C(=O)N12`, the TGI in the assay on SK-MEL-28 melanoma, in the assay with NCI-H23 lung, in the assay with BT-549 breast, with MDA-MB-435, with RXF 393 renal and in the assay on UACC-62 melanoma was above 100 µM in each case. Besides, the TGI with HT29 colon, with A549 NSCLC, in the assay with HCC-2998 colon, with M14 melanoma, in the assay with NCI-H460 lung and with LOX IMVI melanoma was above 100 µM throughout.

For `C=C(NC(=O)C(=C)NC(=O)c1csc(C2=NC3c4csc(n4)C4NC(=O)c5csc(n5)C(C(C)(O)C(C)O)NC(=O)C5CSC(=N5)/C(=C/C)NC(=O)C(C(C)O)NC(=O)c5csc(n5)C3(CC2)NC(=O)C(C)NC(=O)C(=C)NC(=O)C(=C)NC(=O)C(C(C)C)NC2C=Cc3c(C(C)O)cc(nc3C2O)C(=O)OC4C)n1)C(N)=O` (stereo unspecified), the TGI with SK-MEL-28 melanoma is above 62.1 µM; in the assay on NCI-H23 lung, above 62.6 µM; in the assay on BT-549 breast, 7.88 µM; in the assay on MDA-MB-435, above 52.8 µM; in the assay with UACC-62 melanoma, 4.15 µM; with HT29 colon, 16 µM. The TGI in the assay with A549 NSCLC is above 48.5 µM; in the assay with HCC-2998 colon, above 58.1 µM; in the assay with M14 melanoma it was above 28.5 µM; in the assay with NCI-H460 lung, 59.7 µM; in the assay with LOX IMVI melanoma, above 61.3 µM.

As for `Oc1c(OCc2nnc(CCCCCCCCc3nnc(COc4ccc5ccccc5c4O)n3Nc3ccccc3)n2Nc2ccccc2)ccc2ccccc12`, the TGI in the assay on SK-MEL-28 melanoma was determined as 14.3 µM; in the assay on NCI-H23 lung, 35.2 µM; in the assay with BT-549 breast, 25.7 µM; in the assay on MDA-MB-435 it was 19.3 µM; in the assay with RXF 393 renal, 30.9 µM; with UACC-62 melanoma it was 16.5 µM. For the same compound, the TGI in the assay on HT29 colon was determined as 26.2 µM; with A549 NSCLC, 27.8 µM; with HCC-2998 colon, 21.8 µM; with M14 melanoma, 10.9 µM; in the assay on NCI-H460 lung, 20.5 µM.

With `Cc1cc(Br)c(N2C3=C(CC4=C2CCCC4=O)C(=O)CCC3)c(Br)c1`, the TGI in the assay with SR leukemia was above 100 µM; in the assay on SK-MEL-28 melanoma, above 100 µM; with NCI-H23 lung it was above 100 µM; in the assay with BT-549 breast, above 100 µM; with RXF 393 renal it was 84.7 µM; in the assay on UACC-62 melanoma, above 100 µM. Also, the TGI in the assay on HT29 colon, in the assay on A549 NSCLC, with HCC-2998 colon, in the assay with M14 melanoma, in the assay on NCI-H460 lung and with LOX IMVI melanoma was above 100 µM throughout.

Turning to `O=[N+]([O-])/C(C(Cl)=C(Cl)Cl)=C1\Nc2ccccc2O1`, the TGI with SR leukemia was 63.7 µM; in the assay on SK-MEL-28 melanoma, above 100 µM; with NCI-H23 lung, above 100 µM; in the assay on MDA-MB-435, above 100 µM; in the assay with RXF 393 renal it was above 100 µM; with UACC-62 melanoma, above 100 µM. Also, the TGI in the assay on HT29 colon, in the assay on A549 NSCLC, with HCC-2998 colon, in the assay with M14 melanoma, in the assay on NCI-H460 lung and in the assay on LOX IMVI melanoma was above 100 µM in each case.

Regarding `COc1ccc(-c2nc3ncccn3c2-c2ccc(S(C)=O)cc2)cc1` (stereo unspecified), the TGI is above 100 µM with SR leukemia; above 100 µM in the assay on SK-MEL-28 melanoma; above 100 µM with NCI-H23 lung; above 100 µM in the assay on BT-549 breast; 53.8 µM in the assay with MDA-MB-435; above 100 µM in the assay on UACC-62 melanoma. The TGI in the assay with HT29 colon, in the assay with A549 NSCLC, in the assay on M14 melanoma, in the assay on NCI-H460 lung and with LOX IMVI melanoma was above 100 µM in each case.

As for `O=C1CC(NC(=O)C(F)(F)F)c2c(Br)sc(N3CCC(c4ccccc4)CC3)c21` (stereo unspecified), the TGI is above 100 µM with NCI-H23 lung; above 100 µM in the assay on BT-549 breast; above 100 µM in the assay with MDA-MB-435; 88.3 µM in the assay on RXF 393 renal; above 100 µM in the assay on UACC-62 melanoma; above 100 µM in the assay with HT29 colon. Also, the TGI in the assay on A549 NSCLC, in the assay with HCC-2998 colon, in the assay on M14 melanoma, with NCI-H460 lung and in the assay on LOX IMVI melanoma was above 100 µM throughout.

For the compound `Nc1c(Br)cc(-c2cc(Br)c(N)c(Br)c2)cc1Br`, the TGI in the assay on SR leukemia, with SK-MEL-28 melanoma, with NCI-H23 lung, with MDA-MB-435, in the assay with RXF 393 renal and in the assay on UACC-62 melanoma was above 100 µM each time. The TGI with HT29 colon, with A549 NSCLC, in the assay on HCC-2998 colon, with M14 melanoma, with NCI-H460 lung and in the assay on LOX IMVI melanoma was above 100 µM each time.

`COC(=O)[C@]1(C)CCCn2c(=O)n(-c3ccccc3)c(=O)n21`: the TGI with SK-MEL-28 melanoma, with NCI-H23 lung, with BT-549 breast, in the assay on MDA-MB-435, with RXF 393 renal and with UACC-62 melanoma was above 100 µM in each case. Further, the TGI in the assay on HT29 colon, in the assay on A549 NSCLC, in the assay with HCC-2998 colon, in the assay with M14 melanoma and in the assay with LOX IMVI melanoma was above 100 µM each time.

Consider `Cc1c2c(n3c(nc4ccccc43)c1C#N)N(c1ccc(Cl)cc1)CC2`, for which the TGI with SK-MEL-28 melanoma, with NCI-H23 lung, in the assay on BT-549 breast, in the assay on MDA-MB-435, in the assay on RXF 393 renal and with UACC-62 melanoma was above 100 µM each time. Moreover, the TGI in the assay on HT29 colon, in the assay on A549 NSCLC, with HCC-2998 colon, in the assay with M14 melanoma, with NCI-H460 lung and in the assay with LOX IMVI melanoma was above 100 µM in each case.

Consider `COc1c2cc(C(C)(C)C)cc1CSCc1cc(C(C)(C)C)cc(c1OC)CCCCC2`, for which the TGI in the assay with SR leukemia, with SK-MEL-28 melanoma, in the assay on NCI-H23 lung, in the assay on BT-549 breast, in the assay with MDA-MB-435 and in the assay with UACC-62 melanoma was above 50 µM throughout. Further, the TGI in the assay on HT29 colon, in the assay on A549 NSCLC, in the assay with HCC-2998 colon, in the assay with M14 melanoma and in the assay with NCI-H460 lung was above 50 µM each time.

These data come from PubChem BioAssay (NCI).
